Here are results for 13 molecules from patent publication US20220000817A1, “PROGNOSIS AND TREATMENT OF METASTATIC CANCER” (Academia Sinica, priority 2018, published 2022).

The test system of one assay is F4 cells. The assay can be described thus: Sensitization of F4 cells to cisplatin by 2-APAs. In kind it is cell-based, human. The conditions noted are these: F4 cells pre-treated with 20 μM 2-APA, data not shown. An excerpt:
In this example, the effect of 2-APAs (e.g., ibuprofen, flurbiprofen, naproxen and ketoprofen) and cisplatin on F4 cells were investigated.

The test system of assay [1] is EFHD2. In words: Western blot of EFHD2 expression in cancer cells. In kind it is cell-based, human. The conditions noted are these: H1299 and F4 cells. The procedure:
Cell lines and cell culture. Human lung adenocarcinoma cells A549 and H1299 were obtained from the American Type Culture Collection (ATCC, Maryland, USA). Human lung adenocarcinoma cell lines CL1-0 were from National Taiwan University Hospital, Taipei, Taiwan. Cell line CL1-5-F4 (F4) was established by selection of increasingly invasive cell populations from CL1-0 in according to procedures described by Chu Y W et al (Am J Respir Cell Mol Biol (1997) 17:353-360). H1299 and F4 cells were cultured in DMEM/F-12 media (Invitrogen). A549 and CL1-0 cells were maintained in RPMI 1640 media (Invitrogen). All culture media were supplemented with 10% fetal bovine serum and 1% antibiotics (GIBCO). All cells were grown in a humidified atmosphere of 5% CO2 and 95% air at 37° C. Western blot analysis. Proteins were separated using 10% or 12.5% SDS-PAGE and transferred onto a PVDF membrane via electroblotting at […] at 4° C. for 3 hr in 25 mmol/L Tris-HCl, 197 mmol/L glycine, and 13.3% (v/v) methanol. Then, 5% (w/v) skim milk in TBST was used for the blocking reaction, and the primary antibodies were incubated at room temperature overnight. After TBST washes, horseradish peroxidase-conjugated secondary antibodies were further incubated at room temperature for 1 hr. […] The primary antibodies used in this study included EFHD2 (ab106667; abcam), E-cadherin (#5296; Cell Signaling), vimentin (#3932; Cell Signaling), CAV1 (#3238; Cell Signaling), and β-actin (ab8226; abeam). […] Results are illustrated in FIG. 4.
(In western blotting, separated proteins are transferred to a membrane and probed.)

The next assay concerns H1299 and F4 cells. In words: Migration and invasion by matrigel transwell system. The format is cell-based, human. The procedure:
FIG. 5 Ibuprofen reduced EFHD2 expression in cancer cells. (A) The effect of various doses of ibuprofen on EFHD2 in H1299 and F4 cells were respectively determined by Western blot assay; (B) The effects of ibuprofen on the invasion and migration ability of H1299 and F4 cells were analyzed by matrigel transwell system. Wound healing assay. The in vitro migration assay was performed using a Culture-Insert well (ibidi GmbH, German/v). Cancer cells (4.5×10^4 cells) were cultured in suitable media in the device for 24 hr. After removal of the Culture-Insert, cancer cells were cultured for an additional 8 hr. The migration distance of cancer cells was recorded, and the migration area was measured using ImageJ software. Matrigel invasion assay. For in vitro invasion assay, cancer cells (1.5×10^5 cells in 200 μL) were suspended in the upper half of a PET membrane transwell insert chamber (BD Biosciences), which was coated with Matrigel (1 mg/mL; BD Biosciences), on a 24-well plate. Medium supplemented with 10% FBS was added as a chemoattractant to the lower half After incubation at 37° C. for 24 hr, cancer cells that passed through the insert were fixed with 3.7% formalin (Sigma-Aldrich) and stained with 0.1% crystal violet (Sigma-Aldrich).

In another assay the test system is EFHD2 mRNA. In words: qPCR of EFHD2 mRNA levels with or without ibuprofen. The format is cell-based, human. Particulars: data not shown. For orientation: Real-time PCR tracks product formation cycle by cycle.
The test system of assay [2] is EFHD2. In words: Ibuprofen-induced EFHD2 degradation with proteasome/lysosome inhibitors, western blot. The format is cell-based, human. Particulars: for effect on ibuprofen-induced EFHD2 degradation: H1299 cells pretreated 0.5 hr, then 600 μM ibuprofen. As for the experimental part:
FIG. 6. Ibuprofen activates both proteasomal and lysosomal degradation of EFHD2. H1299 cells were pretreated with MG132 and/or Baf-A1 for 0.5 hr, then followed by the treatment of 600 μM ibuprofen for the indicated time. EFHD2 expression was determined by western blot assay.
Western blot analysis. Proteins were separated using 10% or 12.5% SDS-PAGE and transferred onto a PVDF membrane via electroblotting at 400V at 4° C. for 3 hr in 25 mmol/L Tris-HCl, 197 mmol/L glycine, and 13.3% (v/v) methanol. Then, 5% (w/v) skim milk in TBST was used for the blocking reaction, and the primary antibodies were incubated at room temperature overnight. After TBST washes, horseradish peroxidase-conjugated secondary antibodies were further incubated at room temperature for 1 hr. […] The primary antibodies used in this study included EFHD2 (ab106667; abcam), E-cadherin (#5296; Cell Signaling), vimentin (#3932; Cell Signaling), CAV1 (#3238; Cell Signaling), and β-actin (ab8226; abeam).
As ubiquitin-proteasome pathway and autophagy-lysosome pathway are two major systems responsible for cellular protein degradation, we then investigated whether any of the two systems has involved in ibuprofen-mediated EFHD2 degradation.

A further assay deals with A549 cells. The assay can be described thus: MTT cell survival, A549 pcDNA / pEFHD2 cells. The format is cell-based, human. The procedure:
FIG. 8 Susceptibility of cancer cells lacking endogenous EFHD2 to chemotherapeutic drug is not enhanced by ibuprofen. MTT assay was used to determine cell survival ratio in the control cells (A549^pcDNA) or cells transfecting with vectors that carrying exogenous EFHD2 gene (A549^pEFHD2) with or without the treatment of ibuprofen and/or cisplatin.
(§1) MTT assay. […] The absorbance of the solution at 570 nm was measured by spectrophotometer.
In this example, instead of knocking down the endogenous EFHD2 expression via interference RNA, human lung adenocarcinoma cells A549 having low level of endogenous EFHD2 were used to further elucidate the action of ibuprofen (i.e., enhancing the susceptibility of cancer cells to chemotherapeutic drugs). Results are illustrated in FIG. 8.

Assay [3] concerns H1299 cells. In words: MTT cell survival, H1299 shGFP / shEFHD2 cells. The format is cell-based, human. As for the experimental part:
MTT assay was used to determine cell survival ratio in the control cells (H1299^shGFP) or cells having the expression of EFHD2 being knock-out via interference RNA (H1299^shEFHD2) with or without the treatment of ibuprofen and/or cisplatin.
as §1
In this example, the mechanism of ibuprofen and its combination with a chemotherapeutic drug (i.e., cisplatin) were investigated via comparing their actions on the survival of H1299 cells in the presence or absence of EFHD2. To this purpose, H1299 cells were pre-treated with the present shRNA (i.e., H1299^shEFHD2) to knockdown the expression of EFHD2 in H1299 cells in accordance with procedures described in Example 1; and the control cells were pre-treated with shGFP. Results are depicted in FIG. 7.

The test system of assay [4] is H1299 cells. The assay can be described thus: H1299 xenograft mouse model, tumor size. The format is in vivo, BALB/c nude mice. Particulars: cisplatin 5 mg/Kg injection once per week for 3 weeks; ibuprofen 25 mg/Kg orally; alone or in combination. The source says: Animals. All procedures (2017-305) involving animal research were approved by the Institutional Animal Care and Use Committee (IACUC) at Chinese Medical University Hospital (CMUH) (Taichung, Taiwan). 5-week-old male BALB/c nude mice (18 to 25 g) were obtained from the National Laboratory Animal Center (Taipei, Taiwan). Mice were maintained in an environment under a 12: 12 hr light/dark cycle with access to food and water ad libitum.
BALB/c nude mice were orthotropically xenografted with H1299 cells (1×10^6 cells) by stereotactic injection in the back. Mouse tumor progression (including growth and metastasis) was measured by IVIS weekly until week 7.
In this example, in vivo effect of the combined treatment of ibuprofen and cisplatin was investigated via the xenograft mouse model established in accordance with the procedures described in the “Materials and methods” section. For treatment purpose, mice were treated with cisplatin (5 mg/Kg, via injection, once per week for 3 weeks) and ibuprofen (25 mg/Kg, orally fed, on the day when cisplatin was injected, and 1 day prior to, and 1 day after the cisplatin injection), alone or in combination. Mice were then sacrificed and the tumors were isolated and further analyzed. Results are depicted in FIG. 9.

Where a SMILES comes first, the peptide text is derived from it. The star is where a group is joined. Cbz = O=C(OCc1ccccc1)*

Experimental for EFHD2 mRNA: RNA isolation and Quantitative polymerase chain reaction (qPCR). Total RNA was extracted with TRIzol reagent (Invitrogen). RT-PCR was performed using 1 μg of sample and the MMLV First-Strand synthesis kit (GeneDireX), and a ten-fold dilution of the RT-PCR product was applied for qPCR analysis. qPCR was performed using KAPA SYBR® FAST qPCR Master Mix Kit (Kapa Biosystems) by the LightCycler 480 apparatus (Roche). GAPDH served as an endogenous control. Specific DNA expression was estimated by the comparative Ct method using 2^−ΔΔCT.

On to `CC(C(=O)O)c1cccc(C(=O)c2ccccc2)c1` (stereo not shown) [ketoprofen], for which the “sensitivity to subsequent cisplatin treatment (cell death)” value (“sensitivity” for short) in the assay with F4 cells was “more sensitive to the subsequent treatment of cisplatin”. For the same molecule, the “expression of EFHD2” value with EFHD2 [1] is recorded as “effective in suppressing the expression of EFHD2”.
Turning to `CC1=C(CC(=O)O)c2cc(F)ccc2/C1=C\c1ccc([S+](C)[O-])cc1` (stereo not shown) [sulindac], the “expression of EFHD2” value in the assay on EFHD2 [1] was “possessed no such effect”.
For `COc1ccc2cc([C@H](C)C(=O)O)ccc2c1` [naproxen], the “sensitivity” value in the assay on F4 cells is “more sensitive to the subsequent treatment of cisplatin”. The “expression of EFHD2” value in the assay with EFHD2 [1] is “effective in suppressing the expression of EFHD2”.
In the case of `CC(C)Cc1ccc(C(C)C(=O)O)cc1` (stereo not shown) [ibuprofen], the invasion ability entry in the assay with H1299 and F4 cells is listed as “attenuated”. For the same molecule, in the assay with H1299 and F4 cells, the migration ability result is given as “attenuated”. In the assay with F4 cells, the “sensitivity” value was “more sensitive to the subsequent treatment of cisplatin”. Moreover, the “EFHD2 mRNA levels” value with EFHD2 mRNA is “did not influence EFHD2 mRNA levels”. Moreover, the “mechanism of EFHD2 degradation” value with EFHD2 [2] (H1299 cells, 600 μM ibuprofen) is “both proteasomal- and lysosomal-dependent mechanism”. For the same molecule, the “expression of EFHD2” value in the assay on EFHD2 [1] was “effective in suppressing the expression of EFHD2”. The “level of EFHD2” value in the assay on EFHD2 [1] (various doses of ibuprofen) is “reduce the level of EFHD2 in a dose-dependent manner”. Also, the “susceptibility to cisplatin treatment” value in the assay with A549 cells (A549^pEFHD2 vs A549^pEFHD2+ibuprofen) is “failed to increase their susceptibilities to cisplatin”; with A549 cells (A549^pcDNA vs A549^pcDNA+ibuprofen), “no enhanced susceptibility”. Also, the “survival ratio, combination with cisplatin” value in the assay on H1299 cells [3] (H1299^shEFHD2 cells vs H1299^shGFP+ibuprofen) is on record as “comparable to the control cells subjecting to the same treatment”; in the assay with H1299 cells [3] (H1299^shGFP cells, ibuprofen (600 and cisplatin (1, 2, 5, 10 or 20 μM))), “lower than those treated with cisplatin alone”. For the same molecule, in the assay with H1299 cells [4], the “size of the tumor” value is given as “more effective than cisplatin”.
With `CC(=O)Oc1ccccc1C(=O)O` [aspirin], in the assay with EFHD2 [1], the “expression of EFHD2” value is on record as “possessed no such effect”.
Take `CC(C)C[C@@H](C=O)NC(=O)[C@H](CC(C)C)NC(=O)[C@H](CC(C)C)NC(=O)OCc1ccccc1` [MG132] (Cbz-Leu-Leu-Leu-aldehyde): the “effect on ibuprofen-induced EFHD2 degradation” value with EFHD2 [2] is given as “incapable of reducing ibuprofen-induced EFHD2 degradation”.
In the case of `CC(C(=O)O)c1ccc(-c2ccccc2)c(F)c1` (stereo not shown) [flurbiprofen], the “sensitivity” value with F4 cells is “more sensitive to the subsequent treatment of cisplatin”. In addition, in the assay on EFHD2 [1], the “expression of EFHD2” value was “effective in suppressing the expression of EFHD2”.
As to `N.N.[Cl][Pt][Cl]` [cisplatin], the survival ratio entry in the assay on H1299 cells [3] (H1299^shGFP and H1299^shEFHD2 cells, cisplatin alone, MTT 24 hours) is on record as “decreased with an increase in the concentration of cisplatin”. Besides, in the assay with H1299 cells [4], the “size of the tumor” value is “significantly reduce the size of the tumor”.
Consider `O=C(O)Cc1ccccc1Nc1c(Cl)cccc1Cl` [diclofenac], for which, in the assay with EFHD2 [1], the “expression of EFHD2” value is recorded as “possessed no such effect”.
In the case of `O=C(c1ccccc1)c1ccc2n1CCC2C(=O)O` (stereo not shown) [ketorolac], the “expression of EFHD2” value in the assay with EFHD2 [1] is “possessed no such effect”.
Still for that read-out and setting: next, `Cc1cccc(Nc2ccccc2C(=O)O)c1C` [mefenamic acid]: “possessed no such effect”.
As for `CO/C1=C\C(C)=C\[C@@H](C)[C@@H](O)[C@@H](C)C/C(C)=C/C=C/[C@H](OC)[C@@H]([C@@H](C)[C@@H](O)[C@H](C)[C@@]2(O)C[C@@H](O)[C@H](C)[C@@H](C(C)C)O2)OC1=O` [Baf-A1, bafilomycin A1], in the assay with EFHD2 [2], the “effect on ibuprofen-induced EFHD2 degradation” value was “incapable of reducing ibuprofen-induced EFHD2 degradation”.
As to `CN1C(C(=O)Nc2ccccn2)=C(O)c2ccccc2S1(=O)=O` [piroxicam], the “expression of EFHD2” value with EFHD2 [1] was “possessed no such effect”.
